{
  "source": "patent US20240150401A1",
  "about": "“INSECT NEUROPEPTIDES 7” (Solasta Bio Limited, priority 2022, published 2024)",
  "format_in_all_cases": "in vivo",
  "key": {"[1]": {"tested_on": "Aphis gossypii", "experiment": "Field trials on cotton and melon (AgriScience)", "conditions": "unformulated, naturally infested, comparable to commercial insecticides (FIGS. 11, 12)", "method": "(§1) Field trials for peptide SB-P-66, unformulated, against various insects were conducted by third-party organisations PGRO and AgriScience."}, "[2]": {"tested_on": "Amrasca biguttula (leaf hopper)", "experiment": "Field trials", "conditions": "unformulated; naturally infested; over time; comparable to commercial insecticides (FIG. 14)", "method": "as §1"}, "[3]": {"tested_on": "Myzus persicae", "experiment": "Field trials", "conditions": "unformulated; comparable to commercial insecticides", "method": "as §1"}, "[4]": {"tested_on": "bees", "experiment": "Bee oral toxicity test (adapted from OECD Test No. 247: Bumblebee, Acute Oral Toxicity Test)", "conditions": "96 hours after application, compared to Imidacloprid (FIG. 9)", "method": "Bee oral testing protocol was carried out adapted from OECD Test No. 247: Bumblebee, Acute Oral Toxicity Test. The toxicity of SB-P-66 was compared with a negative control of sucrose or vehicle, and with a current commercial insecticide Imidacloprid."}, "[5]": {"tested_on": "Myzus persicae aphids", "experiment": "Leaf dip assay (IRAC susceptibility test method 019), mortality assessment", "conditions": "unformulated, mortality assessed at 72, 96 and 120 hours, compared to vehicle and Spirotetramat (FIGS. 6-8)", "method": "The assay was carried out based on IRAC susceptibility test method 019 (https://irac-online.org/methods/aphids-adultnymphs/).\nFill a small 4 cm wide 3 cm high dish with a 1% agar treatment solution of the active chemical or control (ensuring 1 cm gap between the agar and the lid) and leave to set. Dip a 2.5 cm leaf disc into 3 ml of treatment solution allowing the treatment to coat the leaf. Leave the disc to dry for 1 hour and place onto the set agar. Place insects (Myzus persicae aphids) onto each of the leaf discs. Each unit is sealed with a close-fitting, ventilated lid. Place the agar dishes in a small plastic tray lined with moist tissue paper and ensure the water trays in the bottom of the incubator are filled with clean water and place within the incubator. An assessment of mortality is made at 72, 96 and 120 hours. Leaf dip assays were performed with SB-P-66, and compared to a negative control vehicle and a current commercial insecticide Spirotetramat. The activity of SB-P-66 is shown in FIGS. 6 and 7; SB-P-66 has good activity whilst being eco-friendly and targeted to specific pests unlike broad spectrum chemical insecticides such as Spirotetramat."}, "[6]": {"tested_on": "Aphis fabae", "experiment": "Field trials on vining peas (PGRO)", "conditions": "unformulated, naturally infested, comparable to commercial insecticides (FIGS. 10, 13)", "method": "as §1"}},
  "data": [
    {"substance": "H-PAFSSWG-NH2 [SB-P-66, [Hy]-PAFSSWG-[NH2]]", "values": [
      {"measurement": "efficacy in field trials against Aphis gossypii", "setting": "[1]", "result": "good efficacy"},
      {"measurement": "efficacy in field trials against Amrasca biguttula", "setting": "[2]", "result": "good efficacy"},
      {"measurement": "efficacy in field trials against Myzus persicae", "setting": "[3]", "result": "good efficacy"},
      {"measurement": "bee oral toxicity (% survival)", "setting": "[4]", "result": "far lower toxicity"},
      {"measurement": "activity against Myzus persicae (mortality)", "setting": "[5]", "result": "good activity"},
      {"measurement": "efficacy in field trials against Aphis fabae", "setting": "[6]", "result": "good efficacy"}
    ]}
  ]
}
